Measurements from patent US6521620B1, “Bicyclic compounds capable of inhibiting tyrosine kinases of the epidermal growth factor receptor family” (Warner-Lambert Company, priority 1994, dated 2003).
pIC50: −log10 of the molar value. Where a name gives a salt, the structure may show the parent alone. Read-outs that look alike come from different tables or passages of the source.

Target: T1, Human EGF receptor tyrosine kinase (Homo sapiens, UniProt P00533)
T1 construct: isolated from A431 human epidermoid carcinoma cells which overexpress EGF receptor; endogenous in cells; host or cells: A431 human epidermoid carcinoma cells; purified from the lysate on wheat germ agglutinin sepharose
Assay: EGF receptor tyrosine kinase inhibition (phosphorylation of PLC-gamma 1 derived peptide)
Format: biochemical
Settings: for IC50: read-out: EGF Receptor Tyrosine Kinase Inhibition IC50
Protocol: Purification of Epidermal Growth Factor Receptor Tyrosine Kinase—Human EGF receptor tyrosine kinase was isolated from A431 human epidermoid carcinoma cells which overexpress EGF receptor by the following methods. Cells were grown in roller bottles in 50% Delbuco's Modified Eagle and 50% HAM F-12 nutrient media (Gibco) containing 10% fetal calf serum. Approximately 10^9 cells were lysed in two volumes of buffer containing 20 mM 2-(4N-[2-hydroxyethyl]piperazin-1-yl)ethanesulfonic acid (hepes), pH 7.4, 5 mM ethylene glycol bis(2-aminoethyl ether) N,N,N′,N′-tetraacetic acid, 1% Triton X-100, 10% glycerol, 0.1 mM sodium orthovanadate, 5 mM sodium fluoride, 4 mM pyrophosphate, 4 mM benzamide, 1 mM dithiothreitol, 80 μg/mL aprotinin, 40 μg/mL leupeptin and 1 mM phenylmethylsulfonyl fluoride. After centrifugation at 25,000×g for 10 minutes, the supernatant was equilibrated for 2 h at 4° C. with 10 mL of wheat germ agglutinin sepharose that was previously equilibrated with 50 mM Hepes, […], 0.1% Triton X-100 and 150 mM NaCl, pH 7.5, (equilibration buffer). Contaminating proteins were washed from the resin with 1 M NaCl in equilibration buffer, and the enzyme was eluted with 0.5 M N-acetyl-1-D-glucosamine in equilibration buffer, followed by 1 mM urea. The enzyme was eluted with 0.1 mg/ml EGF.
The reaction was terminated by the addition of 2 mL of […] phosphoric acid and passed through a 2.5 cm phosphocellulose filter disc to bind the peptide. The filter was washed five times with 75 mM phosphoric acid and placed in a vial along with 5 mL of scintillation fluid (Ready gel Beckman).

T1 sequence (P00533 25-1210): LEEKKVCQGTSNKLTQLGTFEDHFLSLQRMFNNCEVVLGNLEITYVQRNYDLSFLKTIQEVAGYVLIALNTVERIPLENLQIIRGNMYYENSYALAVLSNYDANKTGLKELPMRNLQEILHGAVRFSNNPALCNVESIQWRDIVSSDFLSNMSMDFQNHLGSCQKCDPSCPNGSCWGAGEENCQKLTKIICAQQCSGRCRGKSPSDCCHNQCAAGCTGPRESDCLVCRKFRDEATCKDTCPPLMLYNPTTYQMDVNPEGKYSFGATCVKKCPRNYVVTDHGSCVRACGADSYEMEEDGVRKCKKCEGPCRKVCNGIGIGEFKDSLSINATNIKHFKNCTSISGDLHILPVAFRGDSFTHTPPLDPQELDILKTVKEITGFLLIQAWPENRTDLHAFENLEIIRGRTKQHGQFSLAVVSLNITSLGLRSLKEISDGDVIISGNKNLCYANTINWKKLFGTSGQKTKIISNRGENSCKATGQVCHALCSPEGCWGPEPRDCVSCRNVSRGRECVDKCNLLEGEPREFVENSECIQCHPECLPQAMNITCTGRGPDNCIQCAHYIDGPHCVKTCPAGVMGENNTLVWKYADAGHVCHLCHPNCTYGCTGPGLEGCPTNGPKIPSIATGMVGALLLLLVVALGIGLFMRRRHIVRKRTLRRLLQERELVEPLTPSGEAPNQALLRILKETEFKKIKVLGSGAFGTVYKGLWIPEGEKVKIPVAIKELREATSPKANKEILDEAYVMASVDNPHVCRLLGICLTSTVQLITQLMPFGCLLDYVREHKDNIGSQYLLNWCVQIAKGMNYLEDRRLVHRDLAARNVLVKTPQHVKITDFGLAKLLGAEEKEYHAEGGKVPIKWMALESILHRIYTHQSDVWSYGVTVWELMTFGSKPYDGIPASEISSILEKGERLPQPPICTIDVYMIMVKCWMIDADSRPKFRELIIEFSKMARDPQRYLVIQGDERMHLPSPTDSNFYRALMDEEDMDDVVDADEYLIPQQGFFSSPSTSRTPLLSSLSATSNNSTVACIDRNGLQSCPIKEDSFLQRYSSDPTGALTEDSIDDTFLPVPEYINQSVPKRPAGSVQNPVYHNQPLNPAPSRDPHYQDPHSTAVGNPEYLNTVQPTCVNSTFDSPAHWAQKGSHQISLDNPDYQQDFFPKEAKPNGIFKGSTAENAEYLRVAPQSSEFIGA

Row | SMILES | IC50 (Table 1, values in nM) [nM] | IC50 (Table 1, values printed in μM) [nM] | other results
1 | COc1ccc(Nc2ncnc3cc(N)ncc23)cc1 [Example 78, 7-Amino-4-(4-methoxyanilino)pyrido[4,3-d]pyrimidine] | 670 | – | –
2 | Brc1cccc(Nc2ncnc3ccsc23)c1 [Example 71, 4-(3-Bromoanilino)thieno[3,2-d]pyrimidine Hydrochloride] | – | – | pIC50: 7.96
3 | Nc1cccc(Nc2ncnc3cc(N)ncc23)c1 [Example 17, 7-Amino-4-(3-aminoanilino)pyrido[4 3-d]pyrimidine] | – | 1550 | –
4 | Clc1cc2c(Nc3cccc(Br)c3)ncnc2cn1 [Example 58, 4-(3-Bromoanilino)-6-chloropyrido[3,4-d]pyrimidine] | 40 | – | –
5 | Brc1cccc(Nc2ncnc3cnc(N4CCCCC4)cc23)c1 [Example 79, 4-(3-Bromoanilino)-6-(piperidin-1-yl)pyrido[3,4-d]pyrimidine] | 6.7 | – | –
6 | Brc1cccc(Nc2ncnc3[nH]cnc23)c1 [Example 75, N^6-(3-Bromophenyl)adenine] | 55 | – | –
7 | Nc1cc2ncnc(Nc3ccc(C(F)(F)F)cc3)c2cn1 [Example 32, 7-Amino-4-(4-trifluoromethylanilino)3pyrido[4,3-d]pyrimidine] | – | 4700 | –
8 | CN(C)c1cccc(Nc2ncnc3cc(N)ncc23)c1 [Example 19, 7-Amino-4-(3-dimethylaminoanilino)pyrido [4,3-d]pyrimidine] | – | 1800 | –
9 | CC(=O)Nc1cc2ncnc(Nc3cccc(Br)c3)c2cn1 [Example 36, 7-Acetylamino-4-(3-bromoanilino)pyrido[4 3-d]pyrimidine] | 29 | – | –
10 | CN(C)c1ccc(Nc2ncnc3cc(N)ncc23)cc1 [Example 20, 7-Amino-4-(4-dimethylaminoanilino)pyrido[4,3-d]pyrimidine] | – | 4900 | –
11 | Nc1ccc(Nc2ncnc3cc(N)ncc23)cc1 [Example 18, 7-Amino-4-(4-aminoanilino)pyrido[4,3-d]pyrimidine] | 173 | – | –
12 | Nc1cc2ncnc(Nc3ccccc3Br)c2cn1 [Example 26, 7-Amino-4-(2-bromoanilino)pyrido[4,3-d]pyrimidine] | 241 | – | –
13 | c1ccc(CNc2ncnc3ccncc23)cc1 [Example 38, 4-Benzylaminopyrido[4,3-d]pyrimidine] | 71 | – | –
14 | Nc1cc2ncnc(Nc3cccc(O)c3)c2cn1 [Example 14, 7-Amino-4-(3-hydroxyanilino)pyrido[4,3-d]pyrimidine] | 70 | – | –
15 | Nc1cc2ncnc(NCc3cccs3)c2cn1 [Example 53, 7-Amino-4-(thien-2-ylmethylamino)[4,3-d]pyrimidine Dimesylate] | – | 1800 | –
16 | CN(C)c1cc2ncnc(Nc3cccc(Br)c3)c2cn1 [Example 34, 4-(3-Bromoanilino)-7-dimethylaminpyrido[4,3-d]pyrimidine] | – | – | IC50 (Table 1, values in pM): 0.091 nM
17 | c1ccc(Nc2ncnc3ccncc23)cc1 [Example 10, 4-Anilinopyrido[4,3-d]pyrimidine] | – | 6100 | –
18 | c1ccc(CNc2ncnc3ccsc23)cc1 [Example 72, 4-Benzylaminothieno[3,2-d]pyrimidine] | 35 | – | –
19 | Brc1cccc(Nc2ncnc3ncccc23)c1 [Example 63, 4-(3-Bromoanilino)pyrido[2,3-d]pyrimidine] | – | 6100 | –
20 | Fc1cc2c(Nc3cccc(Br)c3)ncnc2cn1 [Example 57, 4-(3-Bromoanilino)-6-fluoropyrido[3,4-d]pyrimidine] | 124 | – | –
21 | c1ccc(Nc2ncnc3cccnc23)cc1 [Example 1, 4-Anilinopyrido[3,2-d]pyrimidine Mesylate] | – | 8000 | –
22 | Nc1cc2ncnc(Nc3cccc(C(F)(F)F)c3)c2cn1 [Example 31, 7-Amino-4-(3-trifluoromnethylanilino)pyrido[4,3-d]pyrimidine] | 15 | – | –
23 | Brc1cccc(Nc2ncnc3cccnc23)c1 [Example 3, 4-(3-Bromoanilino)pyrido[3,2-d]pyrimidine] | – | 1100 | –
24 | CN(C)c1ccc2c(Nc3cccc(Br)c3)ncnc2n1 [Example 67, 4-(3-Bromoanilino)-7-dimethylaminopyrido[2,3-d]pyrimidine] | – | 6100 | –
25 | Nc1cc2ncnc(NCc3ccc(C(F)(F)F)cc3)c2cn1 [Example 52, 7-Amino-4-(4-trifluoromethylbenzylamino)pyrido[4,3-d]pyrimidine] | – | 8000 | –
26 | Fc1cc2ncnc(Nc3cccc(Br)c3)c2cn1 [Example 12, 4-(3-Bromoanilino)-7-fluoropyrido[4,3-d]pyrimidine] | 13 | – | –
27 | c1ccc(CNc2ncnc3cccnc23)cc1 [Example 2, 4-Benzylaminopyrido[3,2-d]pyrimidine] | – | – | pIC50: 5.44

Row | SMILES | IC50 (Table 1, values in nM) [nM] | IC50 (Table 1, values printed in μM) [nM] | other results
28 | Nc1cc2ncnc(Nc3cccc(Cl)c3)c2cn1 [Example 24, 7-Amino-4-(3-chloroanilino)pyrido[4,3-d]pyrimidine] | 123 | – | –
29 | Nc1cc2ncnc(Nc3ccccc3)c2cn1 [Example 13, 7-Amino-4-anilinopyrido[4,3-d]pyrimidine] | 250 | – | –
30 | Nc1cc2ncnc(NCc3cccc(Br)c3)c2cn1 [Example 48, 7-Amino-4-(3-bromobenzylamino)pyrido[4,3-d]pyrimidine] | – | 1000 | –
31 | Nc1cc2ncnc(NCc3ccccc3C(F)(F)F)c2cn1 [Example 50, 7-Amino-4-(2-trifluoromethylbenzylamino)pyrido[4,3-d]pyrimidine] | – | 10000 | –
32 | Nc1cc2ncnc(NCc3ccccc3Br)c2cn1 [Example 47, 7-Amino-4-(2-bromobenzylamino)pyrido[4,3-d]pyrimidine] | – | 1670 | –
33 | c1ccc(CNc2ncnc3cnccc23)cc1 [Example 62, 4-(Benzylamino)pyrido[3,4-d]pyrimidine] | – | 6100 | –
34 | Brc1cccc(Nc2ncnc3cnccc23)c1 [Example 56, 4-(3-Bromoanilino)pyrido[3,4-d]pyrimidine] | 110 | – | –
35 | CN(C)c1cccc(CNc2ncnc3cc(N)ncc23)c1 [Example 43, 7-Amino-4-(3-dimethylaminobenzylamino)pyrido[4,3-d]-pyrimidine] | – | 10000 | –
36 | Nc1cc2ncnc(Nc3ccccc3[N+](=O)[O-])c2cn1 [Example 21, 7-Amino-4-(2-nitroanilino)pyrido[4,3-d]pyrimidine] | – | 1250 | –
37 | Fc1ccc2c(Nc3cccc(Br)c3)ncnc2n1 [Example 64, 4-(3-Bromoanilino)-7-fluoropyrido[2,3-d]pyrimidine] | 11 | – | –
38 | Brc1cccc(Nc2ncnc3sccc23)c1 [Example 73, 4-(3-Bromoanilino)thieno[2,3-d]pyrimidine] | – | – | pIC50: 7.44
39 | COc1ccccc1Nc1ncnc2cc(N)ncc12 [Example 16, 7-Amino-4-(2-methoxyanilino)pyrido[4,3-d]pyrimidine] | – | 3700 | –
40 | COc1ccc2c(Nc3cccc(Br)c3)ncnc2n1 [Example 68, 4-(3-Bromoanilino)-7-methoxypyrido[2,3-d]pyrimidine] | 263 | – | –
41 | CC(=O)Nc1cc2ncnc(NCc3ccccc3)c2cn1 [Example 54, 7-Acetylamino-4-benzylaminozpyrido[4,3-d]pyrimidine] | 100 | – | –
42 | CNc1cc2ncnc(N(C)c3cccc(Br)c3)c2cn1 [Example 35, 4-[N-(3-Bromophenyl)-N-methylaminol-7-methylaminopyrido 4,3-d]pyrimidine] | 3.1 | – | –
43 | c1ccc(Nc2ncnc3cnccc23)cc1 [Example 55, 4-Anilinopyrido[3,4-d]pyrimidine] | 400 | – | –
44 | c1ccc(CNc2ncnc3nc[nH]c23)cc1 [Example 76, N^6-Benzyladenine] | – | 10000 | –
45 | Nc1cc2ncnc(Nc3cccc(F)c3)c2cn1 [Example 23, 7-Amino-4-(3-fluoroanilino)pyrido[4,3-d]pyrimidine] | 840 | – | –
46 | COc1cccc(Nc2ncnc3cc(N)ncc23)c1 [Example 15, 7-Amino-4-(3-methoxyanilino)pyrido[4,3-d]pyrimidine] | 134 | – | –
47 | Clc1ccc2ncnc(Nc3cccc(Br)c3)c2n1 [Example 5, 4-(3-Bromoanilino)-6-chloropyrido[3,2-d]pyrimidine] | – | 1900 | –
48 | Nc1cc2ncnc(Nc3ccc(Br)cc3)c2cn1 [Example 28, 7-Amino-4-(4-bromoanilino)pyrido[4,3-d]pyrimidine] | 94 | – | –
49 | COc1ccc2ncnc(Nc3cccc(Br)c3)c2n1 [Example 9, 4-(3-Bromoanilino)-6-methoxypyrido[3,2-d]pyrimidine] | 405 | – | –
50 | Nc1cc2ncnc(NCc3ccccc3N)c2cn1 [Example 42, 7-Amino-4-(2-aminobenzylamino)pyrido[4,3-d]pyrimidine] | 226 | – | –
51 | Nc1cc2ncnc(NCc3ccc(Br)cc3)c2cn1 [Example 49, 7-Amino-4-(4-bromobenzylamino)pyrido[4,3-d]pyrimidine] | – | 2500 | –
52 | Nc1cc2ncnc(NCc3cccc(C(F)(F)F)c3)c2cn1 [Example 51, 7-Amino-4-(3-trifluoromethylbenzylamino)pyrido[4,3-d]pyrimidine] | – | 1950 | –
53 | Nc1cc2ncnc(NCc3ccc(Cl)cc3)c2cn1 [Example 46, 7-Amino-4-(4-chlorobenzylamino)pyrido[4,3-d]pyrimidine Mesylate] | – | 1420 | –
